{"source": "paper PMC5011001", "about": "(Biochimica et biophysica acta, 2016)", "key": {"MAPK13": {"system": "MAPK13", "settings": "read-out: IC50 [MAPK13]; cited from earlier work"}, "[1]": {"molecular_target": "T1, MAPK13 (unphosphorylated) (Homo sapiens, UniProt O15264)", "T1 sequence (O15264 1-365)": "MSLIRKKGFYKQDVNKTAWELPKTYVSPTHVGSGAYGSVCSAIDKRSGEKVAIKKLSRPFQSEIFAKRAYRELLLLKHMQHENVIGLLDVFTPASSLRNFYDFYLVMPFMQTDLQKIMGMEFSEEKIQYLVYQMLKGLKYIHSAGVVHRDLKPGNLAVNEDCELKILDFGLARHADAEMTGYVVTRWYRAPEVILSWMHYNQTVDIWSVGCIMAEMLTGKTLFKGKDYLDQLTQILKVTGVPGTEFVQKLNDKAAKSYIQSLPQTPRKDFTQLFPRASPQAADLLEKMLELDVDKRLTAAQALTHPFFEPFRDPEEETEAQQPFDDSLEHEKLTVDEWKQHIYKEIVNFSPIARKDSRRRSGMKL", "experiment": "Differential scanning fluorimetry", "format": "binding"}, "[2]": {"molecular_target": "T2, activated (phosphorylated) MAPK13 (Homo sapiens, UniProt O15264)", "T2 sequence (O15264 1-365)": "T1 sequence (O15264 1-365)", "experiment": "MAPK13 kinase inhibition assay", "format": "biochemical", "settings": "for IC50 (MAPK13): steady-state enzyme inhibition, 3 μM ATP, stated as range in words; for fold less potent (IC50) than compounds 58 and 61: MAPK13 IC50 comparison"}, "MAPK14": {"molecular_target": "MAPK14 (Homo sapiens, UniProt Q16539)", "sequence (Q16539 whole entry, species assumed)": "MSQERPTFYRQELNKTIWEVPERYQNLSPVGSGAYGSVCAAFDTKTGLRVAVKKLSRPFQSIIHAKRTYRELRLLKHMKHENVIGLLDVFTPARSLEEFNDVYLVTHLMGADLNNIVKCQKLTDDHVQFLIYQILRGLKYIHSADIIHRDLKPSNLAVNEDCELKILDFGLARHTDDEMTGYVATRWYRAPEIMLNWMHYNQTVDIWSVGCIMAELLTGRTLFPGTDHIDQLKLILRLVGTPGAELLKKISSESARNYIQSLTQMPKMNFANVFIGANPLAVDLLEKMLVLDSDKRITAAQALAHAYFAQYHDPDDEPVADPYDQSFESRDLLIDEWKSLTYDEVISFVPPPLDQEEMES", "experiment": "Differential scanning fluorimetry", "format": "binding"}}, "data": [{"smiles": "Cc1ccc(-n2nc(C(C)(C)C)cc2NC(=O)Nc2ccc(OCCN3CCOCC3)c3ccccc23)cc1", "note": "[BIRB-796]", "values": [{"measurement": "IC50", "setting": "MAPK13", "result": "[…]"}]}, {"smiles": "Cn1nc(C(C)(C)C)cc1NC(=O)Nc1ccc(Sc2ccncc2)cc1", "note": "[Compound 58, 1-(3-tert-butyl-1-methyl-1H-pyrazol-5-yl)-3-[4-(pyridin-4-ylsulfanyl)phenyl]urea]", "values": [{"measurement": "Kd", "setting": "[1]", "result": "1900 ± 300", "unit": "nM"}, {"measurement": "IC50 (MAPK13)", "setting": "[2]", "result": "nanomolar range"}]}, {"smiles": "Cc1cn(-c2cccc(C(=O)Nc3ccc(Oc4ccncc4)cc3)c2)cn1", "note": "[Compound 117, 3-(4-methyl-1H-imidazol-1-yl)-N-[4-(pyridin-4-xyloxy)phenyl] benzamide]", "values": [{"measurement": "fold less potent (IC50) than compounds 58 and 61", "setting": "[2]", "result": "over 800 fold"}, {"measurement": "IC50 (MAPK13)", "setting": "[2]", "result": "micromolar range"}]}, {"smiles": "O=C(Nc1ccc(Oc2ccncc2)cc1)c1ccnc(N2CCOCC2)c1", "note": "[Compound 124]", "values": [{"measurement": "fold less potent (IC50) than compounds 58 and 61", "setting": "[2]", "result": "over 800 fold"}, {"measurement": "ATm-MAPK14 (°C)", "setting": "MAPK14", "result": "−0.8± 0.3", "unit": "°C"}]}]}
